According to US20250339399A1, “SUPRAMOLECULAR SELF-ASSEMBLY SYSTEM” (Beijing Creatron Institute of Pharmaceutical Research Co., …, priority 2022, published 2025):
Read-outs that look alike come from different tables or passages of the source. One block for each molecule: values may come before it.

Legend:
[1] = cited from earlier work; for LogP / Sol: natural flavonoids (chalcone, dihydrochalcone class)
[2] = Binary supramolecular self-assembly systems of polymer and target: guest concentration over incubation time (Comparative Example 2); format: physicochemical
Description: Experiments were conducted according to the steps in Comparative Example 1, and quantitative analysis was carried out using the analytical method for each target to investigate the regulation ability […] stacking.

[3] = Guest molecule concentration after incubation in initial medium without polymer (Comparative Example 1); format: physicochemical; details: 37° C., pH 4.5 acetate buffer
Method in brief: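 Dissolved guest content measured by HPLC of centrifuged supernatants (37° C., 13000 rpm, 5 min) sampled at 0.5 h, 3 h and 6 h. Incubation was polymer-free at 37° C.±0.5° C. in buffers of pH 2.0-7.4; nominal loading was set by maximum clinical dose.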

[4] = cited from earlier work
[5] = Binary (carrier), ternary and quaternary supramolecular self-assembly systems of polymer, carrier building block and target: guest concentration over incubation time (Examples 1-56); format: physicochemical; details: 6 h
Method in brief: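 Targets were incubated at 37 °C in pH 2.0–7.4 buffers with 0.5% polymer alone or with carrier building blocks, after 0.5 h sonication for ternary systems, and shaken at 200 rpm. Samples at 0.5–6 h were centrifuged and diluted ≥10-fold, and dissolved target was quantified by HPLC; surfactant was added if needed.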

[6] = parent flavonoid of the class, no unit printed in the heading

SMILES: O=C(CCc1ccc(O)c(O)c1)c1c(O)cc(O)cc1O[C@@H]1O[C@H](CO)[C@@H](O)[C@H](O)[C@H]1O [3-hydroxyphloretin 2′-glucoside]
LogP ([1]; Table 1 basic information): 0.67
Sol ([1]; Table 1 basic information): 11.65 mg/mL

SMILES: O=C(CCc1ccc(O)c(O)c1)c1c(O)cc(O)cc1O [3-hydroxyphloretin, 3-(3,4-dihydroxyphenyl)-1-(2,4,6-trihydroxyphenyl)propan-1-one]
Sol ([1]; Table 1 basic information): 8.59 mg/mL

SMILES: O=C(CCc1ccc(O)c(O)c1)c1c(O)cc(O)c([C@@H]2O[C@H](CO)[C@@H](O)[C@H](O)[C@H]2O)c1O [Aspalathin, 3-(3,4-dihydroxyphenyl)-1-{2,4,6-trihydroxy-3-[3,4,5-trihydroxy-6-(hydroxymethyl)oxo-2-yl]phenyl]propan-1-one]
LogP ([1]; Table 1 basic information): 0.83
Sol ([1]; Table 1 basic information): 36.12 mg/mL

SMILES: CC1(C)[C@@H](O[C@H]2O[C@H](C(=O)O)[C@@H](O)[C@H](O)[C@H]2O[C@@H]2O[C@H](C(=O)O)[C@@H](O)[C@H](O)[C@H]2O)CC[C@]2(C)[C@H]3C(=O)C=C4[C@@H]5C[C@@](C)(C(=O)O)CC[C@]5(C)CC[C@@]4(C)[C@]3(C)CC[C@@H]12 [Glycyrrhizic acid, glycyrrhizic acid]
Solubility ([1]; pH > 5.0): pH > 5.0: 159 mg/ml

SMILES: COc1cc(-c2oc3cc(O)cc(O)c3c(=O)c2O)ccc1O [Isorhamnetin]
Intrinsic solubility (value in the class heading) ([1]; parent flavonoid of the class, Table 1 basic information): Isorhamnetin derivatives (0.45 mg/ml)

SMILES: O=c1c(O)c(-c2ccc(O)cc2)oc2cc(O)cc(O)c12 [Kaempferol, kaempferol]
solubility value given in Table 1 (basic information of natural flavonoids) [1, 6]: Kaempferol (520-18-3) derivatives-0.40

SMILES: O=c1cc(-c2ccc(O)c(O)c2)oc2cc(O)cc(O)c12 [Luteolin]
solubility value given in Table 1 (basic information of natural flavonoids) [1, 6]: Luteolin (CAS: 491-70-3) derivatives-0.40

SMILES: O=c1c(O)c(-c2cc(O)c(O)c(O)c2)oc2cc(O)cc(O)c12 [Myricetin]
solubility value given in Table 1 (basic information of natural flavonoids) ([1]; parent flavonoid of the class, value follows the class name): Myricetin (529-44-2) derivatives −3.14 mg/ml

SMILES: C[C@@H]1O[C@@H](O[C@H]2[C@H](Oc3cc(O)c(C(=O)CCc4ccc(O)cc4)c(O)c3)O[C@H](CO)[C@@H](O)[C@@H]2O)[C@H](O)[C@H](O)[C@H]1O [Naringin dihydrochalcone, naringin dihydrochalcone]
LogP ([1]; Table 1 basic information): 0.90
Sol ([1]; Table 1 basic information): 6.78 mg/mL

SMILES: C[C@@H]1O[C@@H](O[C@H]2[C@H](Oc3cc(O)c(C(=O)CCc4ccc(O)c(O)c4)c(O)c3)O[C@H](CO)[C@@H](O)[C@@H]2O)[C@H](O)[C@H](O)[C@H]1O [Neoeriocitrin dihydrochalcone, 1-[4-[(2S,3R,4S,5S,6R)-4,5-dihydroxy-6-(hydroxymethyl)-3-[(2S,3R,4R,5R,6S)-3,4,5-trihydroxy-6-methoxy-2-yl]oxy-2-yl]oxy-2,6-dihydroxyphenyl]-3-(3,4-dihydroxyphenyl)propan-1-one]
Sol ([1]; Table 1 basic information): 21.89 mg/mL

SMILES: COc1ccc(CCC(=O)c2c(O)cc(O[C@@H]3O[C@H](CO)[C@@H](O)[C@H](O)[C@H]3O[C@@H]3O[C@@H](C)[C@H](O)[C@@H](O)[C@H]3O)cc2O)cc1O [Neosperidin dihydrochalcone, neohesperidin dihydrochalcone]
Sol ([1]; Table 1 basic information): 104.87 mg/mL

SMILES: O=C(CCc1ccc(O)cc1)c1c(O)cc(O)cc1O [Phloretin, 3-(4-hydroxyphenyl)-1-(2,4,6-trihydroxyphenyl)propan-1-one]
Sol ([1]; Table 1 basic information): 3.07 mg/mL

SMILES: O=C(CCc1ccc(O)cc1)c1c(O)cc(O)cc1O[C@@H]1O[C@H](CO)[C@@H](O)[C@H](O)[C@H]1O [Phloridzin, 1-[2,4-dihydroxy-6-[(2S,3R,4S,5S,6R)-3,4,5-trihydroxy-6-(hydroxymethyl)oxo-2-yl]oxophenyl]-3-(4-hydroxyphenyl)propan-1-one]
Sol ([1]; Table 1 basic information): 3.89 mg/mL

SMILES: O=c1c(O)c(-c2ccc(O)c(O)c2)oc2cc(O)cc(O)c12 [Quercetin]
Intrinsic solubility ([1]; parent flavonoid of the class, Table 1 basic information, unit not given): Quercetin (CAS 117-39-5) derivatives EUF (Intrinsic solubility: 1.11)

SMILES: C=C1C[C@@]23CC[C@H]4[C@@](C)(CCC[C@@]4(C)C(=O)O[C@@H]4O[C@H](CO)[C@@H](O)[C@H](O)[C@H]4O)[C@@H]2CC[C@]1(O[C@@H]1O[C@H](CO)[C@@H](O)[C@H](O[C@@H]2O[C@H](CO)[C@@H](O)[C@H](O)[C@H]2O)[C@H]1O[C@@H]1O[C@H](CO)[C@@H](O)[C@H](O)[C@H]1O)C3 [Rebaudioside A]
Intrinsic solubility [1]: Intrinsic solubility: 288.8 mg/ml

SMILES: C=C1C[C@@]23CC[C@H]4[C@@](C)(CCC[C@@]4(C)C(=O)O)[C@@H]2CC[C@]1(O[C@@H]1O[C@H](CO)[C@@H](O)[C@H](O[C@@H]2O[C@H](CO)[C@@H](O)[C@H](O)[C@H]2O)[C@H]1O[C@@H]1O[C@H](CO)[C@@H](O)[C@H](O)[C@H]1O)C3 [Rebaudioside B, rebaudioside B]
Intrinsic solubility [1]: Intrinsic solubility: 7.98 mg/ml

SMILES: C=C1C[C@@]23CC[C@H]4[C@@](C)(CCC[C@@]4(C)C(=O)O[C@@H]4O[C@H](CO)[C@@H](O)[C@H](O)[C@H]4O)[C@@H]2CC[C@]1(O[C@@H]1O[C@H](CO)[C@@H](O)[C@H](O[C@@H]2O[C@H](CO)[C@@H](O)[C@H](O)[C@H]2O)[C@H]1O[C@@H]1O[C@@H](C)[C@H](O)[C@@H](O)[C@H]1O)C3 [Rebaudioside C, rebaudioside C]
Intrinsic solubility [1]: Intrinsic solubility: 72.63 mg/ml

SMILES: C=C1C[C@@]23CC[C@H]4[C@@](C)(CCC[C@@]4(C)C(=O)O[C@@H]4O[C@H](CO)[C@@H](O)[C@H](O)[C@H]4O)[C@@H]2CC[C@]1(O[C@@H]1O[C@H](CO)[C@@H](O)[C@H](O)[C@H]1O)C3 [Rubusoside, rubusoside]
Intrinsic solubility [1]: Intrinsic solubility: 0.39 mg/ml

SMILES: O=C(CCc1ccc(O)c(O)c1)c1c(O)cc(O[C@@H]2O[C@H](CO)[C@@H](O)[C@H](O)[C@H]2O)cc1O [Sieboldin, 1-(2,6-dihydroxy-4-{[3,4,5-trihydroxy-6-(hydroxymethyl)oxo-2-yl]oxy}phenyl)-3-(3,4-dihydroxyphenyl)propan-1-one]
LogP ([1]; Table 1 basic information): 1.32
Sol ([1]; Table 1 basic information): 11.65 mg/mL

Concentration of the target in the solution measured after different incubation time ([2]; binary system with 0.5% polymer 101, incubation 0.5 h): 224.0 µg/mL
Concentration of the target in the solution measured after different incubation time ([2]; binary system with 0.5% polymer 101, incubation 3 h): 88.8 µg/mL
Concentration of the target in the solution measured after different incubation time ([2]; binary system with 0.5% polymer 101, incubation 6 h): 161.3 µg/mL
Concentration of the target in the solution measured after different incubation time ([2]; binary system with 0.5% polymer 102, incubation 0.5 h): 63.4 µg/mL
Concentration of the target in the solution measured after different incubation time ([2]; binary system with 0.5% polymer 102, incubation 3 h): 60.3 µg/mL
Concentration of the target in the solution measured after different incubation time ([2]; binary system with 0.5% polymer 102, incubation 6 h): 55.7 µg/mL
Concentration of the target in the solution measured after different incubation time ([2]; binary system with 0.5% polymer 103, incubation 0.5 h): 46.8 µg/mL
Concentration of the target in the solution measured after different incubation time ([2]; binary system with 0.5% polymer 103, incubation 3 h): 58.7 µg/mL
Concentration of the target in the solution measured after different incubation time ([2]; binary system with 0.5% polymer 103, incubation 6 h): 6.0 µg/mL
Concentration of the target in the solution measured after different incubation time ([2]; binary system with 0.5% polymer 106, incubation 0.5 h): 78.6 µg/mL
Concentration of the target in the solution measured after different incubation time ([2]; binary system with 0.5% polymer 106, incubation 3 h): 65.2 µg/mL
Concentration of the target in the solution measured after different incubation time ([2]; binary system with 0.5% polymer 106, incubation 6 h): 5.2 µg/mL
Concentration of the target in the solution measured after different incubation time ([2]; binary system with 0.5% polymer 107, incubation 0.5 h): 68.7 µg/mL
Concentration of the target in the solution measured after different incubation time ([2]; binary system with 0.5% polymer 107, incubation 3 h): 62.8 µg/mL
Concentration of the target in the solution measured after different incubation time ([2]; binary system with 0.5% polymer 107, incubation 6 h): 13.2 µg/mL
Concentration of guest molecule measured after different incubated time ([3]; 0.5 h): 77.4 µg/mL
Concentration of guest molecule measured after different incubated time ([3]; 3 h): 8.2 µg/mL
Concentration of guest molecule measured after different incubated time ([3]; 6 h): 17.3 µg/mL
Concentration of guest molecule in solution ([5]; ternary: 0.25% 102H + 307): 161.3 µg/mL
Concentration of guest molecule in solution ([5]; ternary: 0.25% 102H + 308): 219.1 µg/mL
Concentration of guest molecule in solution ([5]; ternary: 0.25% 102H + 320): 328.9 µg/mL
Concentration of guest molecule in solution ([5]; ternary: 0.25% 102H + 321): 337.2 µg/mL
SMILES: C=CC[C@@H]1/C=C(\C)C[C@H](C)C[C@H](OC)[C@H]2O[C@@](O)(C(=O)C(=O)N3CCCC[C@H]3C(=O)O[C@H](/C(C)=C/[C@@H]3CC[C@@H](O)[C@H](OC)C3)[C@H](C)[C@@H](O)CC1=O)[C@H](C)C[C@@H]2OC [Tacrolimus]
LogP [4]: LogP 5.59
